Experimental findings from patent publication EP0854192A2, “Production of human cathepsin and its use” (Takeda Chemical Industries, Ltd., priority 1992, dated 1994) are described below.

The assay has as its target human cathepsin L (recombinant, of human renal origin cDNA, expressed in COS-7 cells, concentrated culture supernatant) (Homo sapiens, UniProt P07711). Kind of assay: Cathepsin L enzyme activity assay with synthetic substrate Z-Phe-Arg-NMec in the presence of enzyme inhibitors (method of Barrett and Kirschke). The conditions noted are these: 30°C, 10 minutes; for remaining activity at 1 µM: 1 µM inhibitor added after enzyme activation. The format is biochemical. Here is the method: The culture supernatant of COS-7 transformant prepared in Example 2 was concentrated about 20-fold with Centricut (produced by Kurabo Industries, Ltd., cut-off molecular weight = 10000) and assayed for cathepsin L enzyme activity, according to the method of A. J. Barrett and H. Kirschke [Methods in Enzymology 80, 535 (1981)]. To 25 µl of this concentrated culture supernatant were added 25 µl of 1 M sodium formate buffer (pH 3.0) and 10 µl of 0.1 M DTT, and water was added for a final volume of 250 µl, followed by incubation at 37°C for 30 seconds. After 125 µl of activating buffer (340 mM sodium acetate, 60 mM acetic acid, 4 mM EDTA disodium, pH 5.5) was added, the mixture was kept standing at 30°C for 1 minute for activation. The enzyme reaction was carried out at 30°C for 10 minutes in the presence of 125 µl of a synthetic substrate solution [20 µM Z-Phe-Arg-NMec (Z: benzyloxycarbonyl-, NMec: -7-(4-methyl)coumarylamide)], and stopped by the addition of 500 µl of a reaction stopper (100 mM sodium monochloroacetate, 30 mM sodium acetate, 70 mM acetic acid, pH 4.3). For a control experiment, a culture supernatant of COS-7 cells not expressing cathepsin L was used as an enzyme solution. After termination of the reaction, 100 µl of the reaction mixture was injected into a 96-well fluoroplate (produced by Labo Systems), and the fluorescence intensity of free 7-amino-4-methylcoumarin was determined at a wavelength of 450 nm (excitation wavelength = 365 nm) using a fluorometer FCA (produced by Baxter). In assessing the effects of the following enzyme inhibitors on the present enzyme activity, the inhibitor was added after the above enzyme activating operation. The enzyme inhibitors used were 10 µM leupeptin (cysteine protease inhibitor), 10 µM (p-amidinophenyl)methanesulfonyl fluoride hydrochloride (APMSF: serine protease inhibitor), 1 µM Z-Phe-Phe-CHN2 (cathepsin L inhibitor, -CHN2: -diazomethane) and 1 µM pepstatin A (aspartic acid protease inhibitor).

The mark [1] stands for this setting: read-out: enzyme activity in the presence of enzyme inhibitor, in comparison with the inhibitor-free control.

Where a SMILES comes first, the peptide text is derived from it. [ ]: non-standard residue; d: D form. The star is where a group is joined. Sta = CC(C)C[C@H](N)[C@@H](O)CC(=O)O; Isovaleryl = CC(C)CC(=O)*; Cbz = O=C(OCc1ccccc1)*; CHN2 = [N-]=[N+]=C*

human cathepsin L (recombinant, of human renal origin cDNA, expressed in COS-7 cells, concentrated culture supernatant), sequence (P07711 114-333): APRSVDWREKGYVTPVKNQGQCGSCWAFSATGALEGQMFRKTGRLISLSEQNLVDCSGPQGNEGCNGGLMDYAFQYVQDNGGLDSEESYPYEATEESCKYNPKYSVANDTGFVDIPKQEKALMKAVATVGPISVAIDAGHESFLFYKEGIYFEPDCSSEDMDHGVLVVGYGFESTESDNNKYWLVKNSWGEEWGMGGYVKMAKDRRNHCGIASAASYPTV

For the molecule `Cl.N=C(N)c1ccc(CS(=O)(=O)F)cc1` [APMSF, (p-amidinophenyl)methanesulfonyl fluoride hydrochloride], the “enzyme activity in the presence of enzyme inhibitor, in comparison with the inhibitor-free control” value (10 µM inhibitor added after enzyme activation, remaining activity) was determined as 79%. On to `CC(=O)N[C@@H](CC(C)C)C(=O)N[C@@H](CC(C)C)C(=O)N[C@H](C=O)CCCNC(=N)N` [leupeptin], for which the remaining activity at 10 µM (10 µM inhibitor added after enzyme activation, read-out: enzyme activity in the presence of enzyme inhibitor, in comparison with the inhibitor-free control) worked out at 3.4%. With `CC(C)CC(=O)N[C@H](C(=O)N[C@H](C(=O)N[C@@H](CC(C)C)[C@@H](O)CC(=O)N[C@@H](C)C(=O)N[C@@H](CC(C)C)[C@@H](O)CC(=O)O)C(C)C)C(C)C` [pepstatin A] (Isovaleryl-VV[Sta]A[Sta]-OH), the remaining activity at 1 µM under setting [1] came to 99%.

Turning to `[N-]=[N+]=CC(=O)[C@H](Cc1ccccc1)NC(=O)[C@H](Cc1ccccc1)NC(=O)OCc1ccccc1` [Z-Phe-Phe-CHN2] (Cbz-Phe-Phe-CHN2), the remaining activity at 1 µM under setting [1] stood at 6.3%.
